Test results reported in patent US20220249591A1, “COMPOSITION FOR THE TREATMENT OF EMOTIONAL DISORDERS” (priority 2019, published 2022).
Marks after values point to notes of the source that are not given here.

Tests used:
Format in all cases: in vivo
[1] = system: 6-month-old stressed mice (UCMS); assay: Open field test (anxiety behavior) in UCMS-stressed mice; details: induced model (UCMS) mice, n = 12, after 21 days of daily oral gastric intubation (glutamine 24 mg, curcuma extract 1.2 mg, L. rhamnosus GG 0.120 mg per mouse); clomipramine 10 mg/kg intraperitoneal; 5 min session
Protocol: The solutions were administered orally by gastric intubation to mice (1 tube-feed per day).
The preparation of the solutions is performed extemporaneously and the administration is performed in the morning. During the behavioral sessions, the solutions are administered one hour before the start of the session. The gastric incubation always takes place in a different room from the one in which the behavioral test is performed.
In order to evaluate the results obtained with the solutions, one group of mice received a parenteral administration of a tricyclic antidepressant (clomipramine). The mice were divided into independent groups according to the following treatments:
For each group, the administration of the various solutions lasts 21 consecutive days (3 weeks). The behavioral tests are performed 4 weeks after induction of the model (“elevated plus maze” and “tail suspension”) and 3 weeks after the daily intubations (“open field” and “forced swim”).
The open field test is a circular arena (ø 1 m) surrounded by an opaque wall 25 cm tall placed in a room with uniform lighting of 70 lux. The mice are placed facing the wall at the periphery of the arena and can explore freely for 5 minutes. The area of the open field is practically divided into a peripheral zone (12 cm wide) and a central zone (the remaining area of the arena). The time (in seconds) spent in the central zone is automatically noted by videotracking. The more time a mouse spends in the central zone, the less anxious it is.
The anxiety behavior was evaluated by means of the open field test. The mean time spent by the mice at the center of the apparatus is measured.

[2] = system: 6-month-old stressed mice (UCMS); assay: Forced swim test (Porsolt; depressive behavior) in UCMS-stressed mice
Protocol: The solutions were administered orally by gastric intubation to mice (1 tube-feed per day). The preparation of the solutions is performed extemporaneously and the administration is performed in the morning. During the behavioral sessions, the solutions are administered one hour before the start of the session. The gastric incubation always takes place in a different room from the one in which the behavioral test is performed. […] The mice were divided into independent groups according to the following treatments: For each group, the administration of the various solutions lasts 21 consecutive days (3 weeks). The behavioral tests are performed 4 weeks after induction of the model (“elevated plus maze” and “tail suspension”) and 3 weeks after the daily intubations (“open field” and “forced swim”). The forced swim test (Porsolt) is a test commonly used for evaluating depressive behavior in mice. This test is based on behavioral despair. […] An animal displaying depressive behaviour will spend more time immobile than the non-depressive control mouse. After the session, the animal is dried and placed under warm light. Three parameters for evaluating the depressive behaviour are noted: the time spent swimming, the time spent climbing and the time spent immobile for each animal and also their respective percentage.

[3] = system: intestinal microbiota of the stressed mice; assay: Composition of the fecal microbiota by analysis of the 16S rRNA; details: before vs after treatment, relative to placebo group
Protocol: The composition of the microbiota of the animals was analyzed in order to determine the influence of the formula on the bacterial composition of the fecal microbiota of the stressed mice and to compare it with the influence of the drug or of the placebo.
The animals' feces were sampled in order for a DNA extraction to be performed (Zymo Research based kits). The V3-V4 regions of the 16S rRNA gene are amplified and sequencing is performed on an ILLUMINA MiSeq system using the 2*250 bp mode. Sequence analysis is performed after correction using SPAdes ([…]) and regrouping is performed using PEAR (Zhang J. et al. Bioinformatics 2014; 30(5): 614-20). The OTUs (Operational Taxonomic Units) are identified with the Vsearch tool (Rognes T. et al. Peer J., 2016; 4: e2584), the taxonomic classification arising therefrom was performed by means of the RDP (Ribosomal Database Project) database.
The majority of the diversity studies based on 16S rDNA define the OTUs as being sets of sequences having at least 97% identity with each other. The OTUs are, in point of fact, the unit for measuring the specific richness in microbial ecology.
The statistical analyses were performed using the R program (Team RDC. R: A Language and Environment for Statistical Computing. 2012, Austria: R Foundation for Statistical Computing) and various packets (Ade4, Vegan). […]

[4] = induced model (UCMS) mice, n = 12, after 21 days of daily oral gastric intubation, clomipramine 10 mg/kg intraperitoneal, 6 min session

| Molecule | Open field test Mean (seconds): time spent in the central zone [1] [s] | Forced swim test swimming time, effect in words ([2]; compared with the other groups, 21 days treatment) | Beta-diversity of the intestinal microbiota (PCoA), change of microbiotal profile, in words [3] | Forced swim test Climbing (dry) [2, 4] | Forced swim test Immobility (dry) [2, 4] | Forced swim test Swimming (dry) [2, 4] [s] |
| --- | --- | --- | --- | --- | --- | --- |
| CN(C)CCCN1c2ccccc2CCc2ccc(Cl)cc21 [Clomipramine, reference compound] | 56.8 | spending more time swimming when compared with the other groups | would stabilize the dysbiosis induced by the 4 weeks of stress relative to the placebo group | – | – | – |
| NC(=O)CC[C@H](N)C(=O)O [Glutamine] | 42.9 | – | – | – | – | – |
| Lactobacillus rhamnosus GG | 41.6 | – | – | 113.5* s | 106.8* s | 139.8 |
